From patent publication US12435066B2, “Substituted tricyclic compounds” (LUPIN LIMITED, priority 2019, dated 2025)

Tested on: pERK in DLD1 cells
Assay: ERK phosphorylation assay after EGF stimulation
Assay type: cell-based
Settings: Homo sapiens, DLD-1, compound 2 h, 200 ng/ml hEGF 5 minutes, alphascreen pERK, read-out: ERK phosphorylation inhibition IC50
Method: Example-128: ERK Phosphorylation Assay Protocol
Compounds were tested for their ability to inhibit pERK after EGF stimulation in DLD1 cells. Cells were seeded at 0.2 million cells per well in 96 well cell binding tissue culture plate in 100 μL complete media and were allowed to settle overnight (16 to 20 h). On the following day, cells were treated with various concentrations of test compounds for 2 h followed by stimulation with 200 ng/ml hEGF (diluted in PBS) for 5 minutes. Cells were then washed once with PBS and lysed in freshly prepared lysis buffer (provided with alphascreen surefire ERK1/2 p-T202/Y204 assay kit, cat no: TGRESB10K, Perkin Elmer). Lysis was carried out in plate shaker for 10-15 mins. Lysate was transferred to […] white opti-plate (Perkin Elmer) and alphascreen for pERK was carried out as per manufacturer's instructions. Plate was read after 2 h incubation in plate shaker at […] 300 RPM, 25-28° C.

Q: How did the IC50 turn out when `Cc1nc(N[C@H](C)c2cccc(C(F)(F)C(C)(C)O)c2F)c2cc(N3CC[C@](C)(O)C3)c3c(c2n1)CCC3` (single isomer, unassigned) [Compound 61b] was run?
A: 201 to 500 nM

Q: `Cc1nc(N[C@H](C)c2cccc(C(F)(F)C(C)(C)O)c2F)c2cc(N3CCNC(=O)C3)c3c(c2n1)CCC3` [Compound 66, (R)-4-(4-((1-(3-(1,1-difluoro-2-hydroxy-2-methylpropyl)-2-fluorophenyl)ethyl)amino)-2-methyl-8,9-dihydro-7H-cyclopenta[h]quinazolin-6-yl)piperazin-2-one] was tested. Which IC50 did it give?
A: 1 to 200 nM

Q: With `Cc1nc(N[C@H](C)c2cccc(C(F)(F)CO)c2F)c2cc(N3CCO[C@@H](CO)C3)c3c(c2n1)CCC3` [Compound 86, 2,2-difluoro-2-(2-fluoro-3-((R)-1-((6-((R)-2-(hydroxymethyl)morpholino)-2-methyl-8,9-dihydro-7H-cyclopenta[h]quinazolin-4-yl)amino)ethyl)phenyl)ethan-1-ol] as the molecule, how does the IC50 read?
A: 1 to 200 nM

Q: Which IC50 does the source give for `Cc1nc(N[C@H](C)c2cccc(C(F)(F)CCO)c2F)c2cc(N3CC4(COC4)C3)c3c(c2n1)CCC3` [Compound 70, (R)-3,3-difluoro-3-(2-fluoro-3-(1-((2-methyl-6-(2-oxa-6-azaspiro[3.3]heptan-6-yl)-8,9-dihydro-7H-cyclopenta[h]quinazolin-4-yl)amino)ethyl)phenyl) propan-1-ol] here?
A: 1 to 200 nM

Q: Which IC50 does the source give for `Cc1nc(N[C@H](C)c2cc(N)cc(C(F)(F)F)c2)c2cc(C3CCN(C(=O)C4CC4)CC3)c3c(c2n1)CCC3` [Compound 100, (R)-(4-(4-((1-(3-amino-5-(trifluoromethyl)phenyl)ethyl)amino)-2-methyl-8,9-dihydro-7H-cyclopenta[h]quinazolin-6-yl)piperidin-1-yl)(cyclopropyl)methanone] here?
A: 201 to 500 nM

Q: With `Cc1nc(N[C@H](C)c2cc(N)cc(C(F)(F)F)c2)c2cc(C3CCC(O)CC3)c3c(c2n1)CCC3` (stereo partly drawn) [Compound 125, (R)-4-(4-((1-(3-amino-5-(trifluoromethyl)phenyl)ethyl)amino)-2-methyl-8,9-dihydro-7H-cyclopenta[h]quinazolin-6-yl)cyclohexan-1-ol] as the molecule, how does the IC50 read?
A: 1 to 200 nM

Q: For `Cc1nc(N[C@H](C)c2cc(N)cc(C(F)(F)F)c2)c2cc(O[C@H]3CCOC3)c3c(c2n1)CC(C)O3` (mixture of isomers) [Compound 118a, (R/S)—N—((R)-1-(3-amino-5-(trifluoromethyl)phenyl)ethyl)-2,8-dimethyl-6-(((S)-tetrahydrofuran-3-yl)oxy)-8,9-dihydrofuro[2,3-h]quinazolin-4-amine], which IC50 is on record?
A: 1 to 200 nM

Q: `Cc1nc(NC(C)c2cccc(C(C)(C)CO)c2)c2cc(N3CC4(COC4)C3)c3c(c2n1)CCC3` (single isomer, unassigned) [Compound 6, 2-methyl-2-(3-(1-((2-methyl-6-(2-oxa-6-azaspiro[3.3]heptan-6-yl)-8,9-dihydro-7H-cyclopenta[h]quinazolin-4-yl)amino)ethyl)phenyl)propan-1-ol] was tested. Which IC50 did it give?
A: 201 to 500 nM

Q: Which IC50 does the source give for `Cc1nc(NC(C)c2cccc(C(=O)C(F)(F)F)c2)c2cc(N3CCOCC3)c3c(c2n1)CCC3` (racemic) [Compound 120, (R/S)-2,2,2-trifluoro-1-(3-(1-((2-methyl-6-morpholino-8,9-dihydro-7H-cyclopenta[h]quinazolin-4-yl)amino)ethyl)phenyl)ethan-1-one] here?
A: 201 to 500 nM

Q: For `Cc1nc(N[C@H](C)c2cc(N)cc(C(F)(F)F)c2)c2cc(C3CCOCC3)c3c(c2n1)CCC3` [Compound 104, (R)—N-(1-(3-amino-5-(trifluoromethyl)phenyl)ethyl)-2-methyl-6-(tetrahydro-2H-pyran-4-yl)-8,9-dihydro-7H-cyclopenta[h]quinazolin-4-amine], which IC50 is on record?
A: 201 to 500 nM

Q: With `CC(=O)N1CCC(c2cc3c(N[C@H](C)c4cc(N)cc(C(F)(F)F)c4)nc(C)nc3c3c2CCC3)CC1` [Compound 102, (R)-1-(4-(4-((1-(3-amino-5-(trifluoromethyl)phenyl)ethyl)amino)-2-methyl-8,9-dihydro-7H-cyclopenta[h]quinazolin-6-yl)piperidin-1-yl)ethan-1-one] as the molecule, how does the IC50 read?
A: 1 to 200 nM

Q: With `Cc1nc(N[C@H](C)c2cccc(C(F)(F)C(C)(C)O)c2F)c2cc(N3CCOCC3=O)c3c(c2n1)CCC3` [Compound 123, (R)-4-(4-((1-(3-(1,1-difluoro-2-hydroxy-2-methylpropyl)-2-fluorophenyl)ethyl)amino)-2-methyl-8,9-dihydro-7H-cyclopenta[h]quinazolin-6-yl)morpholin-3-one] as the molecule, how does the IC50 read?
A: 201 to 500 nM

Q: For `CC(=O)N1CCC(c2cc3c(N[C@H](C)c4cc(N)cc(C(F)(F)F)c4)nc(C)nc3c3c2CCCC3)CC1` [Compound 105, (R)-1-(4-(4-((1-(3-amino-5-(trifluoromethyl)phenyl)ethyl)amino)-2-methyl-7,8,9,10-tetrahydrobenzo[h]quinazolin-6-yl)piperidin-1-yl)ethan-1-one], which IC50 is on record?
A: 1 to 200 nM

Q: How did the IC50 turn out when `Cc1cc(N)cc(C(C)Nc2nc(C)nc3c4c(c(N5CCOCC5)cc23)CCC4)c1` (single isomer, unassigned) [Compound 80, N-(1-(3-amino-5-methylphenyl)ethyl)-2-methyl-6-morpholino-8,9-dihydro-7H-cyclopenta[h]quinazolin-4-amine] was run?
A: 201 to 500 nM

Q: Which IC50 does the source give for `Cc1nc(NC(C)c2cc(N)cc(C(F)F)c2)c2cc(N3CC4(COC4)C3)c3c(c2n1)CC(C)(C)O3` (racemic) [Compound 116, (R/S)—N-(1-(3-amino-5-(difluoromethyl)phenyl)ethyl)-2,8,8-trimethyl-6-(2-oxa-6-azaspiro[3.3]heptan-6-yl)-8,9-dihydrofuro[2,3-h]quinazolin-4-amine] here?
A: 1 to 200 nM

Q: Which IC50 does the source give for `CC(=O)N1CC=C(c2cc3c(N[C@H](C)c4cc(N)cc(C(F)(F)F)c4)nc(C)nc3c3c2CCC3)CC1` [Compound 90, (R)-1-(4-(4-((1-(3-amino-5-(trifluoromethyl)phenyl)ethyl)amino)-2-methyl-8,9-dihydro-7H-cyclopenta[h]quinazolin-6-yl)-3,6-dihydropyridin-1(2H)-yl)ethan-1-one] here?
A: 1 to 200 nM

Q: `COC[C@@H]1CN(c2cc3c(N[C@H](C)c4cc(N)cc(C(F)(F)F)c4)nc(C)nc3c3c2CCC3)CCO1` [Compound 32, N—((R)-1-(3-amino-5-(trifluoromethyl)phenyl)ethyl)-6-((S)-2-(methoxymethyl)morpholino)-2-methyl-8,9-dihydro-7H-cyclopenta[h]quinazolin-4-amine] was tested. Which IC50 did it give?
A: 201 to 500 nM

Q: For `Cc1nc(NC(C)c2cccc(C(F)(F)CO)c2C)c2cc(N3CC4(COC4)C3)c3c(c2n1)CCC3` (single isomer, unassigned) [Compound 41, 2,2-difluoro-2-(2-methyl-3-(1-((2-methyl-6-(2-oxa-6-azaspiro[3.3]heptan-6-yl)-8,9-dihydro-7H-cyclopenta[h]quinazolin-4-yl)amino)ethyl)phenyl)ethan-1-ol], which IC50 is on record?
A: 1 to 200 nM

Q: `Cc1nc(N[C@H](C)c2cccc(C(F)(F)C(C)(C)O)c2F)c2cc(-c3ccc(=O)n(C)c3)c3c(c2n1)N(C)C(=O)C(C)(C)O3` [Compound 122, (R)-4-((1-(3-(1,1-difluoro-2-hydroxy-2-methylpropyl)-2-fluorophenyl)ethyl)amino)-2,8,8,10-tetramethyl-6-(1-methyl-6-oxo-1,6-dihydropyridin-3-yl)-8H-[1,4]oxazino[2,3-h]quinazolin-9(10H)-one] was tested. Which IC50 did it give?
A: 201 to 500 nM

Q: With `Cc1nc(N[C@H](C)c2cc(N)cc(C(F)(F)F)c2)c2cc(N3CCC4(CCCO4)CC3)c3c(c2n1)CCC3` [Compound 13, (R)—N-(1-(3-amino-5-(trifluoromethyl)phenyl)ethyl)-2-methyl-6-(1-oxa-8-azaspiro[4.5]decan-8-yl)-8,9-dihydro-7H-cyclopenta[h]quinazolin-4-amine] as the molecule, how does the IC50 read?
A: 1 to 200 nM

Q: With `Cc1nc(NC(C)c2cccc(C(F)(F)F)c2F)c2cc(N3CC4(COC4)C3)c3c(c2n1)CCC3` (single isomer, unassigned) [Compound 34, N-(1-(2-fluoro-3-(trifluoromethyl)phenyl)ethyl)-2-methyl-6-(2-oxa-6-azaspiro[3.3]heptan-6-yl)-8,9-dihydro-7H-cyclopenta[h]quinazolin-4-amine] as the molecule, how does the IC50 read?
A: 1 to 200 nM

Q: `COC[C@H]1CN(c2cc3c(NC(C)c4cccc(C(F)(F)CO)c4C)nc(C)nc3c3c2CCC3)CCO1` (single isomer, unassigned) [Compound 42] was tested. Which IC50 did it give?
A: 1 to 200 nM

Q: With `Cc1nc(N[C@H](C)c2cc(N)cc(C(F)(F)F)c2)c2cc(C3CCC(=O)CC3)c3c(c2n1)CCC3` [Compound 124, (R)-4-(4-((1-(3-amino-5-(trifluoromethyl)phenyl)ethyl)amino)-2-methyl-8,9-dihydro-7H-cyclopenta[h]quinazolin-6-yl)cyclohexan-1-one] as the molecule, how does the IC50 read?
A: 201 to 500 nM

Q: With `Cc1nc(N[C@H](C)c2cccc(C(F)(F)CO)c2F)c2cc(N3CC[C@](C)(O)C3)c3c(c2n1)CCC3` (single isomer, unassigned) [Compound 67a] as the molecule, how does the IC50 read?
A: 1 to 200 nM

Q: How did the IC50 turn out when `COCC1CN(c2cc3c(N[C@H](C)c4cccc(C(F)(F)CO)c4F)nc(C)nc3c3c2CCC3)C1` [Compound 9, (R)-2,2-difluoro-2-(2-fluoro-3-(1-((6-(3-(methoxymethyl)azetidin-1-yl)-2-methyl-8,9-dihydro-7H-cyclopenta[h]quinazolin-4-yl)amino)ethyl)phenyl)ethan-1-ol] was run?
A: 201 to 500 nM
